Read-outs that look alike come from different tables or passages of the source.
Key:
[1] = system: HCV genotype 1b (Con1) replicon in HUH-7 cells; test: HCV replicon luciferase reporter assay, genotype 1b; assay type: cell-based; settings: Hepatitis C virus, Huh-7, 72 h, 3 days incubation
How it was run: (§1)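 Replicon inhibition for both genotypes was measured as Renilla luciferase signal (EnduRen, 7.5 μM final, 2 h) after 3-day, 37° C exposure of replicon-bearing HUH-7 cells in 4% FCS DMEM, 0.5% DMSO. The 1b construct carries S1179I; the 1a H77 construct carries P1496L and S2204I. Twenty-point, 3-fold dilutions were fitted four-parametrically for EC50, and CC50 was taken from multiplexed Cell Titer-Blue.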

[2] = system: HCV genotype 1a (H77 strain) replicon in HUH-7 cells; test: HCV replicon luciferase reporter assay, genotype 1a; assay type: cell-based; settings: Hepatitis C virus, Huh-7, 72 h, 3 days incubation
How it was run: as §1

[3] = HCV genotype 1b replicon luciferase assay, range class, read-out: LE_1b (EC50, range)
[4] = HCV genotype 1a replicon luciferase assay, range class, read-out: LE_1a (EC50, range)
[5] = GETYPE1B, HCV genotype 1b replicon luciferase assay, range class, read-out: LE_1b (EC50, range)
[6] = GETYPE1A, HCV genotype 1a replicon luciferase assay, range class, read-out: LE_1a (EC50, range)
[7] = GETYPE1B, HCV genotype 1b replicon luciferase, read-out: LE_1b (EC50, range)
[8] = GETYPE1A, HCV genotype 1a replicon luciferase, read-out: LE_1a (EC50, range)
[9] = GETYPE1B, HCV genotype 1b replicon luciferase, read-out: LE_1b (EC50)
[10] = GETYPE1A, HCV genotype 1a replicon luciferase, read-out: LE_1a (EC50)

Row | Compound | EC50 [1, 7] [nM] | EC50 [2, 8] [nM] | also measured
1 | COc1ccc2c(O[C@@H]3C[C@H]4C(=O)N[C@]5(C(=O)NS(=O)(=O)C6(CF)CC6)C[C@H]5/C=C\CC[C@H](C)C[C@@H](C)[C@H](NC(=O)OC5(C(F)(F)F)CCCOC5)C(=O)N4C3)ncc(C(F)(F)F)c2c1 (stereo partly drawn) [Compound 1176, 3-(trifluoromethyl)tetrahydro-2H-pyran-3-yl((2R,6S,7R,9S,13aS,14aR,16aS,Z)-14a-(((1-(fluoromethyl)cyclopropyl)sulfonyl)carbamoyl)-2-((6-methoxy-4-(trifluoromethyl)isoquinolin-1-yl)oxy)-7,9-dimethyl-5,16-dioxo-1,2,3,5,6,7,8,9,10,11,13a,14,14a,15,16,16a-hexadecahydrocyclopropa[e]pyrrolo[1,2-a][1,4]diazacyclopentadecin-6-yl)carbamate] | – | – | EC50 [1, 3]: 4.82 to 103 nM; EC50 [2, 4]: 4.82 to 103 nM
2 | COc1ccc2c(O[C@@H]3C[C@H]4C(=O)N[C@]5(C(=O)NS(=O)(=O)C6(CF)CC6)C[C@H]5/C=C\CC[C@@H](C)C[C@@H](C)[C@H](NC(=O)OC5(C(F)(F)F)CCCOC5)C(=O)N4C3)ncc(C(F)(F)F)c2c1 (stereo partly drawn) [Compound 1177, 3-(trifluoromethyl)tetrahydro-2H-pyran-3-yl((2R,6S,7R,9R,13aS,14aR,16aS,Z)-14a-(((1-(fluoromethyl)cyclopropyl)sulfonyl)carbamoyl)-2-((6-methoxy-4-(trifluoromethyl)isoquinolin-1-yl)oxy)-7,9-dimethyl-5,16-dioxo-1,2,3,5,6,7,8,9,10,11,13a,14,14a,15,16,16a-hexadecahydrocyclopropa[e]pyrrolo[1,2-a][1,4]diazacyclopentadecin-6-yl)carbamate] | – | – | EC50 [1, 3]: < 5.46 nM; EC50 [2, 4]: < 5.46 nM
3 | CC[C@@H]1C[C@@H](C)CC/C=C\[C@@H]2C[C@@]2(C(=O)NS(=O)(=O)C2(C)CC2)NC(=O)[C@@H]2C[C@@H](Oc3nc(OC)cc4cc(OC)ccc34)CN2C(=O)[C@H]1NC(=O)OC1(C(F)(F)F)CCCOC1 (stereo partly drawn) [Compound 1178, 3-(trifluoromethyl)tetrahydro-2H-pyran-3-yl((2R,6S,7R,9S,13aS,14aR,16aS,Z)-2-((3,6-dimethoxyisoquinolin-1-yl)oxy)-7-ethyl-9-methyl-14a-(((1-methylcyclopropyl)sulfonyl)carbamoyl)-5,16-dioxo-1,2,3,5,6,7,8,9,10,11,13a,14,14a,15,16,16a-hexadecahydrocyclopropa[e]pyrrolo[1,2-a][1,4]diazacyclopentadecin-6-yl)carbamate] | – | – | EC50 [1, 3]: < 5.46 nM; EC50 [2, 4]: < 5.46 nM
4 | COc1ccc2c(O[C@@H]3C[C@H]4C(=O)N[C@]5(C(=O)NS(=O)(=O)C6(C(F)F)CC6)C[C@H]5/C=C\CC[C@@H](C)C[C@@H](C)[C@H](NC(=O)OC(C)(C)C)C(=O)N4C3)nc(OC)cc2c1 [Compound 1180, tert-butyl ((2R,6S,7R,9R,13aS,14aR,16aS,Z)-14a-(((1-(difluoromethyl)cyclopropyl)sulfonyl)carbamoyl)-2-((3,6-dimethoxyisoquinolin-1-yl)oxy)-7,9-dimethyl-5,16-dioxo-1,2,3,5,6,7,8,9,10,11,13a,14,14a,15,16,16a-hexadecahydrocyclopropa[e]pyrrolo[1,2-a][1,4]diazacyclopentadecin-6-yl)carbamate] | – | – | EC50 [1, 3]: < 5.46 nM; EC50 [2, 4]: < 5.46 nM
5 | COc1ccc2c(O[C@@H]3C[C@H]4C(=O)N[C@]5(C(=O)NS(=O)(=O)C6(C(F)F)CC6)C[C@H]5/C=C\CC[C@@H](C)C[C@@H](C)[C@H](NC(=O)OC(C)(C)C(F)(F)F)C(=O)N4C3)nc(OC)cc2c1 [Compound 1181] | – | – | EC50 [1, 5]: < 5.46 nM; EC50 [2, 6]: < 5.46 nM
6 | COc1ccc2c(O[C@@H]3C[C@H]4C(=O)N[C@]5(C(=O)NS(=O)(=O)C6(C(F)F)CC6)C[C@H]5/C=C\CC[C@@H](C)C[C@@H](C)[C@H](NC(=O)OC(C)(C)C(C)(F)F)C(=O)N4C3)nc(OC)cc2c1 [Compound 1182] | – | – | EC50 [1, 5]: < 5.46 nM; EC50 [2, 6]: < 5.46 nM
7 | COc1ccc2c(O[C@@H]3C[C@H]4C(=O)N[C@]5(C(=O)NS(=O)(=O)C6(CF)CC6)C[C@H]5/C=C\CC[C@@H](C)C[C@@H](C)[C@H](NC(=O)O[C@@]5(C(F)(F)F)CCCOC5)C(=O)N4C3)nc(-c3ccc(OC(C)C)cc3)cc2c1 [Compound 1183] | 1.01 to 5 | 1.01 to 5 | –
8 | COc1ccc2c(O[C@@H]3C[C@H]4C(=O)N[C@]5(C(=O)NS(=O)(=O)C6(CF)CC6)C[C@H]5/C=C\CC[C@@H](C)C[C@@H](C)[C@H](NC(=O)O[C@]5(C(F)(F)F)CCCOC5)C(=O)N4C3)nc(-c3ccc(OC(C)C)cc3)cc2c1 [Compound 1184] | 1.01 to 5 | 1.01 to 5 | –
9 | COc1cc2ccnc(O[C@@H]3C[C@H]4C(=O)N[C@]5(C(=O)NS(=O)(=O)C6(CF)CC6)C[C@H]5/C=C\CC[C@@H](C)C[C@@H](C)[C@H](NC(=O)OC(C)(C)C(F)(F)F)C(=O)N4C3)c2cc1F [Compound 1185] | 0.51 to 1 | 1.01 to 5 | EC50 [1, 9]: 0.83 nM; EC50 [2, 10]: 2.91 nM
10 | COc1cc2ccnc(O[C@@H]3C[C@H]4C(=O)N[C@]5(C(=O)NS(=O)(=O)C6(CF)CC6)C[C@H]5/C=C\CC[C@H](C)C[C@@H](C)[C@H](NC(=O)OC(C)(C)C(F)(F)F)C(=O)N4C3)c2cc1F [Compound 1186] | 1.01 to 5 | 5.01 to 35 | –
11 | CC[C@@H]1C[C@H](C)CC/C=C\[C@@H]2C[C@@]2(C(=O)NS(=O)(=O)C2(C)CC2)NC(=O)[C@@H]2C[C@@H](Oc3nc(OC)cc4cc(OC)c(F)cc34)CN2C(=O)[C@H]1NC(=O)OC(C)(C)C(F)(F)F [Compound 1187] | 1.01 to 5 | 5.01 to 35 | –
12 | CC[C@@H]1C[C@H](C)CC/C=C\[C@@H]2C[C@@]2(C(=O)NS(=O)(=O)C2(C)CC2)NC(=O)[C@@H]2C[C@@H](Oc3nc(OC)cc4cc(OC)c(F)cc34)CN2C(=O)[C@H]1NC(=O)OC(C)(C)C(C)(F)F [Compound 1188] | 0.51 to 1 | 1.01 to 5 | –
13 | CC[C@@H]1C[C@H](C)CC/C=C\[C@@H]2C[C@@]2(C(=O)NS(=O)(=O)C2(C)CC2)NC(=O)[C@@H]2C[C@@H](Oc3nc(OC)cc4cc(OC)c(F)cc34)CN2C(=O)[C@H]1NC(=O)OC1(C(F)(F)F)CCCOC1 (some centres unmarked) [Compound 1189] | 0.51 to 1 | 1.01 to 5 | –
14 | COc1cc2ccnc(O[C@@H]3C[C@H]4C(=O)N[C@]5(C(=O)NS(=O)(=O)C6(CF)CC6)C[C@H]5/C=C\CC[C@@H](C)C[C@@H](C)[C@H](NC(=O)OC5(C(F)(F)F)CCCCO5)C(=O)N4C3)c2cc1F (some centres unmarked) [Compound 1190] | 1.01 to 5 | 1.01 to 5 | EC50 [1, 9]: 1.12 nM; EC50 [2, 10]: 1.66 nM
15 | COc1cc2ccnc(O[C@@H]3C[C@H]4C(=O)N[C@]5(C(=O)NS(=O)(=O)C6(CF)CC6)C[C@H]5/C=C\CC[C@H](C)C[C@@H](C)[C@H](NC(=O)OC5(C(F)(F)F)CCCCO5)C(=O)N4C3)c2cc1F (some centres unmarked) [Compound 1191] | 5.01 to 35 | 5.01 to 35 | –
16 | CC[C@@H]1C[C@H](C)CC/C=C\[C@@H]2C[C@@]2(C(=O)NS(=O)(=O)C2(C)CC2)NC(=O)[C@@H]2C[C@@H](Oc3nccc4cc(OC)c(F)cc34)CN2C(=O)[C@H]1NC(=O)OC1(C(F)(F)F)CCCCO1 (some centres unmarked) [Compound 1192] | 0.51 to 1 | 1.01 to 5 | –
17 | CC[C@@H]1C[C@H](C)CC/C=C\[C@@H]2C[C@@]2(C(=O)NS(=O)(=O)C2(CF)CC2)NC(=O)[C@@H]2C[C@@H](Oc3nc(OC)cc4cc(OC)ccc34)CN2C(=O)[C@H]1NC(=O)OC(C)(C)C(F)(F)F [Compound 1193] | 0.51 to 1 | 1.01 to 5 | –
18 | CC[C@@H]1C[C@@H](C)CC/C=C\[C@@H]2C[C@@]2(C(=O)NS(=O)(=O)C2(CF)CC2)NC(=O)[C@@H]2C[C@@H](Oc3nc(OC)cc4cc(OC)ccc34)CN2C(=O)[C@H]1NC(=O)OC(C)(C)C(F)(F)F [Compound 1194] | 1.01 to 5 | 5.01 to 35 | –
19 | CC[C@@H]1C[C@H](C)CC/C=C\[C@@H]2C[C@@]2(C(=O)NS(=O)(=O)C2CC2)NC(=O)[C@@H]2C[C@@H](Oc3nc4c(c5cc(OC)c(F)cc35)CCCO4)CN2C(=O)[C@H]1NC(=O)OC(C)(C)C(F)(F)F [Compound 1195] | 1.01 to 5 | 1.01 to 5 | –
20 | COc1cc2c3c(nc(O[C@@H]4C[C@H]5C(=O)N[C@]6(C(=O)NS(=O)(=O)C7(C)CC7)C[C@H]6/C=C\CC[C@@H](C)C[C@@H](C)[C@H](NC(=O)OC(C)(C)C(F)(F)F)C(=O)N5C4)c2cc1F)OCCC3 [Compound 1196] | 0.51 to 1 | 0.51 to 1 | –
21 | CC[C@@H]1C[C@H](C)CC/C=C\[C@@H]2C[C@@]2(C(=O)NS(=O)(=O)C2(C)CC2)NC(=O)[C@@H]2C[C@@H](Oc3nc4c(c5cc(OC)c(F)cc35)CCCO4)CN2C(=O)[C@H]1NC(=O)OC(C)(C)C(F)(F)F [Compound 1197] | 0.51 to 1 | 1.01 to 5 | –
22 | CC[C@@H]1C[C@H](C)CC/C=C\[C@@H]2C[C@@]2(C(=O)NS(=O)(=O)C2(C)CC2)NC(=O)[C@@H]2C[C@@H](Oc3nc4c(c5cc(OC)c(F)cc35)CCCO4)CN2C(=O)[C@H]1NC(=O)OC(C)(C)C(C)(F)F [Compound 1198] | 0.51 to 1 | 0.1 to 0.5 | EC50 [1, 9]: 0.9 nM; EC50 [2, 10]: 0.5 nM
